# Assay results: article PMC8197230, “Orientated Immobilization of FAD-Dependent Glucose Dehydrogenase on Electrode by Carbohydrate-Binding Module Fusion for Efficient Glucose Assay” (International Journal of Molecular Sciences, 2021)
# Columns and labels:
# GDH-NL-CBM2 = test system: T1, GDH-NL-CBM2; assay: PMS/DCIP spectrophotometric assay at […] nm, Michaelis-Menten non-linear fit; format: biochemical, Aspergillus niger; details: 0.1 M phosphate buffer pH 6.0, 37 °C; PMS and DCIP as electron acceptors; free enzyme
# T1 construct: gene FAD-GDH; secreted from Pichia pastoris GS115, Ni-purified
# GDH (wild-type FAD-GDH) = test system: T2, GDH (wild-type FAD-GDH); assay: as above; format: biochemical, Aspergillus niger; details: 0.1 M phosphate buffer pH 6.0, 37 °C; PMS and DCIP as electron acceptors; free enzyme
# T2 construct: signal peptide (first 63 bp, 21 residues) removed; C-terminal His tag kept; secreted from Pichia pastoris GS115 (pPIC9k), glycosylated; Ni-purified
structure (smiles),measurement,setting,value
OC[C@H]1OC(O)[C@H](O)[C@@H](O)[C@@H]1O (some centres unmarked) [glucose],Km,GDH-NL-CBM2,11.8 mM
same,Km,GDH (wild-type FAD-GDH),12.3 mM
